Patent publication US20040014772A1, “Compositions and methods for treating glomerular disorders” (priority 2000, published 2004)
“Also recorded” adds a separate entry of the source.

Key:
[1] = system: glomerular epithelial cells GEC; assay: PAN-induced cytotoxicity to GEC (trypan blue exclusion, LDH release); assay type: cell-based, rat; details: PAN 1.5 mM 48 h; preincubation CM 2 mM, PB 25 μM, RN 1 mM, PIP 0.2 mM, pyruvate 10 mM
Description: Rat GEC (kindly provided by both Dr. Saulo Klahr, Washington University School of Medicine, St. Louis, Mo., and Dr. […], University of Texas Health Science Center, San Antonio, Tex.) were maintained in RPMI-1640 medium supplemented with 10% FBS, 15 mM HEPES, insulin, penicillin, streptomycin and L-glutamine in a humidified atmosphere of 95% air-5% CO2 at 37° C. and fed at intervals of 3 days ([…] et al, 1995, Biochem. Biophys. 318(2):286-294). The cells were maintained in 75 Cm^2 tissue culture flasks and the monolayers were subcultured using 0.05% trypsin-0.53 mM EDTA in Hank's balanced salt solution (HBSS). For the experimental study, the cells were grown in 12-well tissue culture plate until confluence. On the day of experiment, the medium was discarded and the confluent GEC monolayer was washed twice with HBSS. The cells were then incubated with various concentrations of PAN (0, 0.1, 0.5, 1.0, 1.5, and 2.0 mM in HBSS) for different periods of time (0, 6 hours, 1 day, 2 days, 3 days and 4 days) at 37° C. At the end of the incubation, the incubation medium was discarded and the GEC monolayer was harvested by trypsinization with 0.05% trypsin-0.53 mM EDTA for 5 min at 37° C. Isolated cells were suspended in HBSS to give about 10^6 cells/ml. PAN-induced cytotoxicity to GEC was measured by the trypan blue exclusion assay (Baliga et al, 1996, Kidney Intl. 50:1118-1124) and lactate dehydrogenase (LDH) release assay (Baliga et al., 1998, Kidney Intl. 53:394-401.). The latter is the percentage of LDH released into the medium, to total LDH recovered from both medium and cellular fraction. […] After the incubation, the cell monolayers were washed twice with HBSS and then incubated with cytotoxic dose of PAN in HBSS for a period of time necessary to induce consistent cytotoxicity ([…], 48 h, based on the concentration and time course studies) at 37° C. PAN induced cytotoxicity on GEC was measured by trypan blue exclusion assay.

[2] = system: H2O2 in the glomeruli; assay: Ultrastructural localization of H2O2 (cerium histochemistry) in rat kidney; assay type: in vivo; details: rats
Description: The principle of this method is that cerium ions combine with H2O2 generated by the cell that results in a precipitate with properties suitable for ultrastructural histochemistry. Localization of H2O2 generation was performed following the procedure of Neale et al (PNAS, USA, 1993, 90:3645-3649.). Following PAN treatment, the left kidney was perfused at 37° C. by retrograde aortic perfusion with 4 ml of each of the following solutions: a) PBS; b) 20 mmol Tris-maleate buffer (pH 7.2) containing 7% sucrose (TMS); c) TMS containing 1 mmol aminotriazole; d) TMS containing 10 mmol aminotriazole, 1 mmol cerium chloride heptahydrate and 2.56 mmol B-NADPH; and e) TMS followed by 10 mmol of 2.5% glutaraldehyde as the fixative. Pieces of the kidney were fixed further for 2 hours in glutaraldehyde and embedded in Epon. Sections from the tissue block were routinely stained with 4% aqueous uranyl acetate and alkaline lead, and examined under a Leo 906 electron microscope.

CN(C)c1ncnc2c1ncn2[C@@H]1O[C@H](CO)[C@@H](N)[C@H]1O [PAN, puromycin aminonucleoside]
PAN-induced cytotoxicity to GEC [1]: cytotoxic; also recorded: cell death in a time and dose dependent manner | cerium-H2O2 reaction product in the glomerular basement membrane ([2]; 1 hour and 6 hours after PAN injection): diffusely distributed throughout the glomerular basement membrane | foot processes (electron microscopy) ([2]; fourth day after PAN, onset of proteinuria): marked fusion of the foot processes
